Patent publication US10633675B2, “Microbial engineering for the production of chemical and pharmaceutical products from the isoprenoid pathway” (priority 2009, dated 2020)

Key:
[1] = system: taxadiene synthesis by strain 26; test: Effect of externally-introduced indole on taxadiene production; assay type: cell-based, E. coli
Text: (§1) FIGS. 15A-15C. Impact of metabolite byproduct Indole accumulation on taxadiene production and growth. […] Strains 26 to 28 and 30 to 32, all with chromosomally integrated upstream pathway expression, were chosen for consistent comparison. The two sets of strains differ only in the expression of the downstream pathway with the second set (30 to 32) having twice the level of expression of the first. In strains 26 to 28 and 30 to 32, upstream expression increased by changing the promoters from Trc, to T5 and T7, respectively. […] The fold improvements are relative to strain 25 and 29, respectively, for the two sets. […] Different concentrations of indole were introduced into cultures of cells cultured in minimal media with 0.5% yeast extract. […] Data are mean+/−SD for three replicates. Strains devoid of the downstream pathway and with different strengths of the upstream pathway (1, 2, 6, 21, 40 and 100) were selected.

[2] = system: engineered strains of E. coli; test: Effect of externally-introduced indole on cell growth; assay type: cell-based
Text: as §1

c1ccc2[nH]ccc2c1 [indole]
exogenous indole level at which taxadiene synthesis is severely inhibited ([1]; exogenous indole (FIG. 15B)): > 100 mg/L
effect on taxadiene production ([1]; indole concentration increased from 50 mg/L to 100 mg/L, minimal media with 0.5% yeast extract (FIG. 15B)): significantly reduced
effect on cell growth ([2]; further increasing the indole concentration, level of inhibition very strain dependent (FIG. 15C)): inhibited cell growth
effect on cell growth of strain 26 compared with strains devoid of the downstream pathway ([2]; strain 26, the high taxadiene producer (FIG. 15C)): strongest inhibition
